Test results from US20240216369A1, “THE USE OF A SPLICING MODULATOR FOR A TREATMENT SLOWING PROGRESSION OF HUNTINGTON'S DISEASE” (Novartis AG, priority 2019, published 2024).

Experiments:
mutant HTT protein [1] = assay: Human PK/PD model scaled from BacHD mouse, simulations in adult patients; conditions: Scaled PD parameters (cortex)
From the text: For the development of a PK/PD model in adults, the adult ACAT/PBPK model (Example 1c.1) was used to predict the concentration-time course of branaplam in plasma after oral branaplam administration. The PD parameters of the population PK/PD model in mouse were scaled for brain cortex and brain striatum from BacHD mouse to human according to following assumptions: • Mutant HTT baseline level in brain (R0) was kept equal to 1. • Drug's potency (IC50) was assumed to be the same in human as in BacHD mouse. The value was not corrected by the plasma protein binding since values in mouse and human were 0.741 and 0.8 in mouse and human, respectively. • Degradation rate or fractional turnover parameter of the mutant HTT protein synthesis (kout) was scaled from BacHD mouse to human considering an allometric scaling method based on the assumption that endogenous turnover of proteins, peptides and hormones can be scaled across different species and are related to energy turnover or metabolic rates (Gabrielsson J, Hjorth S, Quantitative Pharmacology: An Introduction to Integrative Pharmacokinetic-Pharmacodynamic Analysis. Swedish Pharmaceutical Press; 1 edition (May 7, 2012)). […]

[2] = Mouse population PK model (plasma); type: in vivo; conditions: popPK parameters (plasma)
Procedure: For the establishment of the PK/PD relationship and the development of a mouse PK/PD model, the PK parameters in mouse plasma were estimated considering PK data from studies with male C57BL/6 mice (10 mg/kg, single dose), rasH2 mice (1, 3, 4 and 10 mg/kg, repeated daily doses), and BacHD mice (10 and 50 mg/kg, single dose; 12 and 24 mg/kg, repeated, three times a week doses). […] The population PK model was described and executed by Monolix software (Version 2018R1, Lixoft).

mutant HTT protein [3] = assay: Mouse population PK/PD turnover model based on BacHD mouse; type: in vivo; conditions: for Imax: set to 1
From the text: For the development of the PK/PD relationship, the concentration of mutant HTT protein in the brain of BacHD mice and its changes after branaplam administration were used as PD biomarker (Example 1a). To increase the data base, all concentrations of the mutant HTT protein were pooled. The correlation between branaplam concentrations in plasma and the mutant HTT protein concentrations in the brain were investigated by means of a turnover model (described below) considering the inhibition of the production of mutant HTT protein in the brain. Since mutant HTT protein was determined in brain cortex and brain striatum, the PK/PD correlations were executed for both brain parts separately. […] For the execution of the population PK/PD model, the PK parameters (presented in Table 6) from the previously described population PK model were fixed and the PD parameters were calculated. The Monolix software (Version 2018R1, Lixoft) and its turnover model described in the library (pkpd/oral1_2cpt_SigmoidindirectModelinhibitionKin_TlagkaCIV1QV2R0koutimaxIC50gamma) was used to determine the PD parameters in the mouse. The PD part of the model can be described by the following equation:
mutant HTT protein change over time=kin*(1−I max*max(Cc,0)^gamma/(max(Cc,0)^gamma+IC50^gamma))−kout*R • kin: synthesis rate of mutant HTT protein • kout: degradation rate of mutant HTT protein • Imax: maximum inhibition effect • IC50: half-maximum inhibitory concentration • gamma: sigmoidicity of the drug effect • max(Cc,0): branaplam plasma concentration • R: mutant HTT protein level at a given time with baseline R0 of 1 since only relative changes to the baseline were determined in the BacHD mouse model, Example 1a
It has to be noted, that the maximum inhibitory effect was set to 1 and the mutant HTT protein baseline, R0, was set to 1 since only relative changes to the baseline were determined in the BacHD mouse (Example 1a).

Question: What does the source list for `CC1(C)CC(Oc2ccc(-c3ccc(-c4cn[nH]c4)cc3O)nn2)CC(C)(C)N1` [Compound 18, 5-(1H-pyrazol-4-yl)-2-(6-((2,2,6,6-tetramethylpiperidin-4-yl)oxy)pyridazin-3-yl)phenol]?
Answer: Imax (mutant HTT protein [1]; first block): 1; Imax (mutant HTT protein [1]; second block): 1; CL/F ([2]; C57BL/6, rasH2, BacHD (pooled), other: extra-vascular administration): 55.8 mL/min/kg; Q/F [2]: 8.4 mL/min/kg; V1 [2]: 28.2 L/kg; V2 [2]: 32.5 L/kg; ka [2]: 0.429 h⁻¹; Tlag ([2]; pooled C57BL/6, rasH2 and BacHD data): 0.346 h; time of maximum decrease of mutant HTT protein in the brain (mutant HTT protein [3]; BacHD mouse): about 72 h post dose; IC50 (plasma concentration, inhibition of mutant HTT protein production) (mutant HTT protein [3]; popPD parameters (cortex), BacHD mouse): 0.174 µg/mL; Imax (mutant HTT protein [3]; popPD parameters (cortex)): 1; IC50 (plasma concentration, inhibition of mutant HTT protein production) (mutant HTT protein [3]; popPD parameters (striatum), BacHD mouse): 0.0682 µg/mL; Imax (mutant HTT protein [3]; popPD parameters (striatum)): 1
